What is called melting point is the temperature, or range, at which the solid turns liquid.

Where a name gives a salt, the structure may show the parent alone.

Regarding `COc1ccc(CNc2cc(C(O)CNC(C)(C)CCn3cnc4ccccc43)ccc2O)cc1` (stereo not shown) (as salt: acetate) [Example 3, 1-[3-(4-methoxybenzylamino)-4-hydroxyphenyl]-2-[4-(1-benzimidazolyl)-2-methyl-2-butylamino]ethanol], the melting point fell in the range of 154 to 155 °C. To `COc1ccc(CC(C)(C)NCC(O)c2ccc(O)c3c2OCC(=O)N3)cc1` (stereo not shown) (as salt: hydrochloride) [Example 4, 1-[2H-5-hydroxy-3-oxo-4H-1,4-benzoxazin-8-yl]-2-[3-(4-methoxyphenyl)-2-methyl-2-propylamino]ethanol] belongs 202 to 205 °C. Under `COc1ccc(-c2ncn(CCC(C)(C)NCC(O)c3ccc(O)c4c3OCC(=O)N4)n2)cc1` (stereo not shown) (as salt: hydrochloride) [Example 5, 1-[2H-5-hydroxy-3-oxo-4H-1,4-benzoxazin-8-yl]-2-{4-[3-(4-methoxyphenyl)-1,2,4-triazol-3-yl]-2-methyl-2-butylamino}ethanol] stands 175 to 179 °C; under `CCCCOc1ccc(CC(C)(C)NCC(O)c2ccc(O)c3c2OCC(=O)N3)cc1` (stereo not shown) (as salt: methanesulfonate) [Example 2, 1-[2H-5-hydroxy-3-oxo-4H-1,4-benzoxazin-8-yl]-2-[3-(4-n-butyloxyphenyl)-2-methyl-2-propylamino]ethanol], 189 to 190 °C.

Source of the values: patent US20050137242A1, “Betamimetics having a long-lasting activity, processes for preparing them, and their use as medicaments” (Boehringer Ingelheim Pharma GmbH & Co. KG, priority 2000, published 2005).
